ChEMBL document CHEMBL4334516, “Kinase Chemodiversity from the Arctic: The Breitfussins” (J Med Chem, 2019)

How the values were obtained:
MCF7 = experiment: Cytotoxicity in human MCF7 cells assessed as reduction in cell viability incubated for 72 hrs by MTS assay; type: functional, cell-based; conditions: MCF7, 72 h
MDA-MB-468 = experiment: Cytotoxicity in human MDA-MB-468 cells assessed as reduction in cell viability incubated for 72 hrs by MTS assay; type: functional, cell-based; conditions: MDA-MB-468, 72 h
[1] = molecular target: T1, Mitogen-activated protein kinase 15 (Homo sapiens, UniProt Q8TD08); experiment: Inhibition of ERK8 (unknown origin) by [33P]-ATP filter binding kinase assay
T1 sequence (Q8TD08 whole entry): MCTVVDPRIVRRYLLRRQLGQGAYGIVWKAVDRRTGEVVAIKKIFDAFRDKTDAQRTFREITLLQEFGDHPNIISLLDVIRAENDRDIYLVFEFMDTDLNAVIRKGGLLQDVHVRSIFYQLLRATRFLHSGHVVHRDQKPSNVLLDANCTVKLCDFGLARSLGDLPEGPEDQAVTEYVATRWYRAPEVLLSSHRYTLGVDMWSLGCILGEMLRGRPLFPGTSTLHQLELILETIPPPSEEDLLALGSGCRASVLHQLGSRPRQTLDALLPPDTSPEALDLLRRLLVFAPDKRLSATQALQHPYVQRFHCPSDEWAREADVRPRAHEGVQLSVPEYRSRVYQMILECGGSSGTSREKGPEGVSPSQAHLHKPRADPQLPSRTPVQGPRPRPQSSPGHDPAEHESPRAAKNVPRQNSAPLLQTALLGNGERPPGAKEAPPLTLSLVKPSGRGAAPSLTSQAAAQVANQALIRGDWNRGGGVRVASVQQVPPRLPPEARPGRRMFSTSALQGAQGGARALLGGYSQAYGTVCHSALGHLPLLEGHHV

[2] = molecular target: T2, Serine/threonine-protein kinase pim-3 (Homo sapiens, UniProt Q86V86); experiment: Inhibition of PIM3 (unknown origin) by [33P]-ATP filter binding kinase assay
[3] = molecular target: T3, Mitogen-activated protein kinase kinase kinase kinase 2 (Homo sapiens, UniProt Q12851); experiment: Inhibition of GCK (unknown origin) by [33P]-ATP filter binding kinase assay
T3 sequence (Q12851 whole entry): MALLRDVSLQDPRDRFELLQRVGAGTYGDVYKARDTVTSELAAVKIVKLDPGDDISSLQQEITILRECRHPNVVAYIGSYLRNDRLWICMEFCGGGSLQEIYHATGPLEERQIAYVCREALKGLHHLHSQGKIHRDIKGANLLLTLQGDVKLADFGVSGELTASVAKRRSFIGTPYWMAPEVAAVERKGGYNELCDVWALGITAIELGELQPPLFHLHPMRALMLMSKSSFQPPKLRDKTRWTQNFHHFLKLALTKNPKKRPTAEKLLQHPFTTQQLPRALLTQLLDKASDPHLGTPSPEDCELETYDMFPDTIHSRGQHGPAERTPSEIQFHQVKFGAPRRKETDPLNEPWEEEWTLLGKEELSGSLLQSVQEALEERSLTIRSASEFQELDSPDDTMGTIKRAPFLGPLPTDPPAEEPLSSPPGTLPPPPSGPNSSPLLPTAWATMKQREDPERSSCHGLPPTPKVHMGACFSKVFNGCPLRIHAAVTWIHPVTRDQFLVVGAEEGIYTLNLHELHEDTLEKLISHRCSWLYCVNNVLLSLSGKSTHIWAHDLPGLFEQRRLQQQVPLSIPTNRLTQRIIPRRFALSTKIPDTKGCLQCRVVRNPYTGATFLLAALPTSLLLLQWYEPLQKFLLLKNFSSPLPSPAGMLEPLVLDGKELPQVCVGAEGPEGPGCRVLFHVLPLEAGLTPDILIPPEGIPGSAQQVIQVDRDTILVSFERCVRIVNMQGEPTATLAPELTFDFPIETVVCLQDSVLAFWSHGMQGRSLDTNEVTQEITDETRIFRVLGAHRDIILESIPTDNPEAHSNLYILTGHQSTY

[4] = molecular target: T2, Serine/threonine-protein kinase pim-3; experiment: Inhibition of PIM3 (unknown origin) assessed as residual enzyme activity at 1 uM by [33P]-ATP filter binding kinase assay relative to control
[5] = molecular target: Myosin light chain kinase family member 4 (Homo sapiens) (UniProt Q86YV6); experiment: Binding affinity to wild-type human partial length MYLK4 (V79 to S380 residues) expressed in bacterial expression system assessed as residual binding level at 10 uM by active-site directed competition binding assay based Kinomescan method relative to control
Sequence of Myosin light chain kinase family member 4 (Homo sapiens) (Q86YV6 whole entry, the tested form may be a part): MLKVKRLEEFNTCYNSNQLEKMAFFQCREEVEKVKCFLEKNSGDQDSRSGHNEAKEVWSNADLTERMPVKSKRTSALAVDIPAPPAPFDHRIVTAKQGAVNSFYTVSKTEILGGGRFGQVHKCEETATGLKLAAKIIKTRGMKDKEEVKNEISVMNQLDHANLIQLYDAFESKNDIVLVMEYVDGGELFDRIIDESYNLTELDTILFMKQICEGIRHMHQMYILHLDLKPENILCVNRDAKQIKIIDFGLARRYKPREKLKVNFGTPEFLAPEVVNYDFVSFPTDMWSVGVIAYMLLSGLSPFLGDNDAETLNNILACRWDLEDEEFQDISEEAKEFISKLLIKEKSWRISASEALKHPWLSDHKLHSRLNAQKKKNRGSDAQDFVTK

[6] = molecular target: T2, Serine/threonine-protein kinase pim-3; experiment: Binding affinity to wild-type human partial length PIM3 (G16 to A317 residues) expressed in bacterial expression system by active-site directed competition binding assay based Kinomescan method
[7] = molecular target: Receptor-type tyrosine-protein kinase FLT3 (Homo sapiens, UniProt P36888, N841I); experiment: Binding affinity to human partial length FLT3 N841I mutant (V592 to Y969 residues) expressed in bacterial expression system by active-site directed competition binding assay based Kinomescan method
[8] = Cytotoxicity in human MT3 cells assessed as reduction in cell viability incubated for 72 hrs by SRB assay; conditions: MT-3, 72 h
NCI-H460 = experiment: Cytotoxicity in human NCI-H460 cells assessed as reduction in cell viability incubated for 72 hrs by SRB assay; conditions: NCI-H460, 72 h
[9] = molecular target: T4, Serine/threonine-protein kinase 17B (Homo sapiens, UniProt O94768); experiment: Inhibition of DRAK2 (unknown origin) expressed in HEK293 cells by NanoLuc-luciferase reporter based intracellular ATP competitiveness assay; type: cell-based
T4 sequence (O94768 whole entry): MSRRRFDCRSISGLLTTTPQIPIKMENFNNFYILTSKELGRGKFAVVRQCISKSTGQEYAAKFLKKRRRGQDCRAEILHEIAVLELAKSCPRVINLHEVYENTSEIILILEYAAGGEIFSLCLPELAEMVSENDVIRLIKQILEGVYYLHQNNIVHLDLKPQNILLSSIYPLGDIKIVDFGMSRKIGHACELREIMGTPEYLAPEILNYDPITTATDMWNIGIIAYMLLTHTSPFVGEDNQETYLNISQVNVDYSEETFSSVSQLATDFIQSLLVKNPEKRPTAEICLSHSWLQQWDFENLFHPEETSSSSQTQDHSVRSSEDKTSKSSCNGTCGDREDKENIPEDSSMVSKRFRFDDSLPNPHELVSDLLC

[10] = molecular target: Sodium-dependent noradrenaline transporter (Homo sapiens, UniProt P23975); experiment: Inhibition of [3H]nisoxetine binding to human recombinant NET incubated for 120 mins by scintillation counting method; conditions: 2 h
Sequence of Sodium-dependent noradrenaline transporter (P23975 whole entry): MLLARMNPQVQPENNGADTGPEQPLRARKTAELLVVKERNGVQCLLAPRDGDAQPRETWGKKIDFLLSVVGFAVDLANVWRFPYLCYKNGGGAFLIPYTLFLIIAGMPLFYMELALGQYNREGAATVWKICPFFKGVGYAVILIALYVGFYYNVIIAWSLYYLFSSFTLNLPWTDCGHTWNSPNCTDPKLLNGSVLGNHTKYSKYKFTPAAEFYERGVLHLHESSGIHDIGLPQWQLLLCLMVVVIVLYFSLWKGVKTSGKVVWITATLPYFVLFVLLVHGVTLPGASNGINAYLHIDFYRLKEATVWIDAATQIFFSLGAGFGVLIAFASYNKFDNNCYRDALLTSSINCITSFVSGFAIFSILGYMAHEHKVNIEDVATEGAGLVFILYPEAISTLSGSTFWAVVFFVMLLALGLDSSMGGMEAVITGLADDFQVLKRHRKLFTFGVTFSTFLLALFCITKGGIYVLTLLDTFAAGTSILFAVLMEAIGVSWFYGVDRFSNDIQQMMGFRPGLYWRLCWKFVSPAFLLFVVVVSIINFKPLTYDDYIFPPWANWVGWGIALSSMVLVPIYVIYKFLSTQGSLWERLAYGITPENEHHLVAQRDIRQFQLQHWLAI

[11] = Toxicity in zebrafish embryos assessed as survival at 1.4 uM after 72 hrs (reference value: 95%); set-up: species or system Danio rerio; conditions: in vivo
[12] = Toxicity in zebrafish embryos assessed as induction of general edema by measuring unaffected embryos level at 0.1 uM after 72 hrs (reference value: 100%); set-up: species or system Danio rerio; conditions: in vivo
[13] = Stability in human liver microsomes supplemented with UDP-glucuronic acid assessed as parent compound remaining level at 5 uM incubated for 1 hr by LC-MS analysis; type: ADME, Microsome; conditions: read-out: Stability
Hs-578T = experiment: cells; conditions: Homo sapiens, 72 h
Description: Cytotoxicity in human Hs 578T cells assessed as reduction in cell viability incubated for 72 hrs by SRB assay

[14] = molecular target: Dual specificity tyrosine-phosphorylation-regulated kinase 1A (Homo sapiens, UniProt Q13627); experiment: Inhibition of DYRK1A (unknown origin) by [33P]-ATP filter binding kinase assay

Compound | IC50 (MCF7) | IC50 (MDA-MB-468) | IC50 [1] | IC50 [2] | IC50 [3] | Activity [4] | Activity [5] | Kd [6] | Kd [7] | IC50 [8] | IC50 (NCI-H460) | IC50 [9] | inhibition (INH) [10] | survival at 72 h, 1.4 µM [11] | Activity [12] | remaining at 1 h, 5 µM [13] | IC50 (Hs-578T) | IC50 [14]
COc1cc2c(-c3cnc(-c4ccc[nH]4)o3)c[nH]c2cc1Br | 8.5 µM | > 10 µM | 1 µM | 1.8 µM | 0.6 µM | 7% | 0.25% | 4.7 µM | 8.9 µM | 0.93 µM | 2 µM | 0.5 µM | Active | 45% | 100% | 92% | 5.22 µM | 
COc1cc(Br)cc2[nH]cc(-c3cnc(-c4ccc(Br)[nH]4)o3)c12 | > 10 µM | > 10 µM | > 10 µM | > 10 µM | > 10 µM |  |  |  |  |  |  | 3.3 µM |  |  |  |  |  | > 10 µM
COc1cc(Br)cc2[nH]cc(-c3cnc(-c4ccc[nH]4)o3)c12 | 3.9 µM | > 10 µM | 46 µM | 3.7 µM | 1.2 µM | 29% |  |  |  |  |  | 8.3 µM |  |  |  |  |  | > 10 µM
COc1cc(Br)cc2[nH]cc(-c3oc(-c4ccc[nH]4)nc3I)c12 | > 10 µM | > 10 µM | > 10 µM | > 10 µM | > 10 µM |  |  |  |  |  |  | > 10 µM |  |  |  |  |  | > 10 µM
